According to the SangsterLogP compilation:

SMILES	logP
COP(=S)(OC)SCN1C(=O)c2ccccc2C1=O	2.71
c1ccc(Sc2ccccc2)cc1	4.43
CCOC(=O)c1ccc([N+](=O)[O-])cc1	2.43
COC(=O)Cc1ccccc1	1.75
CCCC(=O)c1c(C)cc(C)c(C2CC(=O)C(/C(CC)=N/OCC)=C(O)C2)c1C (stereo not drawn)	4.74
O=c1c2cc(F)ccc2nc(-n2cncn2)n1-c1ccc(Cl)cc1Cl	3.21
N#Cc1cnc2ccccc2c1	1.64
CC(C)N(C)S(=O)(=O)NC(=O)c1cc(-n2c(=O)cc(C(F)(F)F)n(C)c2=O)c(F)cc1Cl	2.33
CCCCCOC(=O)C(C)Oc1ccc(Oc2ccc(C(F)(F)F)cn2)cc1 (stereo not drawn)	5.6
CCc1cccc(C)c1N(C(=O)CCl)C(C)COC (stereo not drawn)	3.01
CCCCC(O)(Cn1cncn1)c1ccc(Cl)cc1Cl (stereo not drawn)	3.8
CNC(=O)Oc1cccc2c1OC(C)(C)C2	1.59
CS(=O)(=O)c1ccc(C(=O)C2C(=O)CCCC2=O)c(Cl)c1	1.2
Fc1ccc([C@@]2(Cn3cncn3)O[C@@H]2c2ccccc2Cl)cc1	3.3
CC(=O)Nc1ccccn1	0.56
CON(C(=O)c1cn(C)nc1C(F)F)C(C)Cc1c(Cl)cc(Cl)cc1Cl (stereo not drawn)	3.77
Cc1ccc(NC(=O)N(C)C)cc1Cl	2.43
Cc1cc(C)nc(Nc2ccccc2)n1	2.84
COc1cc(OC)nc(NC(=O)NS(=O)(=O)c2ncccc2OCC(F)(F)F)n1	1.85
CC(C)(C)C(O)C(Cc1ccc(Cl)cc1Cl)n1cncn1 (stereo not drawn)	3.69
O=[N+]([O-])c1ccc(Oc2ccccc2)cc1	3.66
CC1(c2ccc(Oc3ccccc3)cc2)OC(=O)N(Nc2ccccc2)C1=O (stereo not drawn)	4.78
CC(C)(C)C(O)(CCc1ccc(Cl)cc1)Cn1cncn1 (stereo not drawn)	3.59

SMILES	logP
CCCC(=O)c1ccccc1	2.68
OC(Cn1cncn1)(c1ccc(F)cc1)c1ccccc1F (stereo not drawn)	2.26
O=C1CC(C(=O)O)CC(=O)C1=C(O)C1CC1 (stereo not drawn)	1.42
CS(=O)(=O)c1ccc(C(=O)C2C(=O)CCCC2=O)c(Cl)c1COCC(F)(F)F	2.15
CCNc1nc(Cl)nc(NCC)n1	2.09
COC(=O)c1ccccc1CS(=O)(=O)NC(=O)Nc1nc(OC)cc(OC)n1	2.36
CCCCC(C#N)(Cn1cncn1)c1ccc(Cl)cc1 (stereo not drawn)	3.06
c1ccc(-c2ccccc2)cc1	3.96
C#CCOc1ccc(CCNC(=O)C(OCC#C)c2ccc(Cl)cc2)cc1OC (stereo not drawn)	3.16
COCC(=O)N(c1c(C)cccc1C)C(C)C(=O)OC (stereo not drawn)	1.6
CC(C)(C)[C@H](O)[C@H](Cc1ccc(Cl)cc1)n1cncn1	3.09
C=CCN(CC=C)C(=O)C(Cl)Cl	1.77
Cc1nc(N(C)C)nc(OC(=O)N(C)C)c1C	1.75
CC(=O)Nc1cccnc1	0.38
C#CC(C)(C)NC(=O)c1cc(Cl)cc(Cl)c1	3.23
CCCOC(=O)C(C)Oc1ccc(Oc2ccc(C(F)(F)F)cn2)cc1 (stereo not drawn)	4.44
Cn1cc(C(=O)Nc2cccc3c2[C@@H]2CC[C@H]3C2=C(Cl)Cl)c(C(F)F)n1	4.34
O=C(O)COc1ccc(Cl)cc1Cl	2.66
Cc1ccc(CO)cc1	1.62
CO/N=C(/C1=NOCCO1)c1ccccc1Oc1ncnc(Oc2ccccc2Cl)c1F	2.95
c1ccc(-c2ccc(C(c3ccccc3)n3ccnc3)cc2)cc1 (stereo not drawn)	5.12
CCOc1cc(Oc2ccc(C(F)(F)F)cc2Cl)ccc1[N+](=O)[O-]	5.19
COc1c(Cl)ccc(Cl)c1C(=O)O	2.52

SMILES	logP
CS(=O)(=O)c1ccc(C(=O)C2C(=O)CCCC2=O)c([N+](=O)[O-])c1	0.9
O=[N+]([O-])C=C1CCCN1Cc1ccc(Cl)nc1	0.7
C[C@@H](Oc1ccc(Oc2ccc(C(F)(F)F)cn2)cc1)C(=O)O	3.21
Cc1cc(C2CC2)nc(Nc2ccccc2)n1	3.91
CCNc1nc(Cl)nc(NC(C)C)n1	2.54
O=Cc1cccc(Oc2ccccc2)c1	3.32
O=C(CCl)Nc1ccccc1	1.54
COC(=O)C=Cc1ccccc1	2.67
CS(=O)(=O)c1ccccc1	0.51
CCCCc1c(C)nc(NCC)[nH]c1=O	2.23
Nc1ccc(Cl)c(Cl)c1	2.62
CCOCn1c(-c2ccc(Cl)cc2)c(C#N)c(Br)c1C(F)(F)F	5.24
CC(C)N(C(=O)CCl)c1ccccc1	2.12
CO/C=C(/C(=O)OC)c1ccccc1Oc1cc(Oc2ccccc2C#N)ncn1	2.53
CC(C)Oc1cccc(NC(=O)c2ccccc2C(F)(F)F)c1	3.59
CCC(=O)c1ccccc1	2.16
O=C(NCCc1ncc(C(F)(F)F)cc1Cl)c1ccccc1C(F)(F)F	3.26
CN(C)C(=O)Nc1cc(C(C)(C)C)on1	1.91
N#Cc1c[nH]cc1-c1cccc2c1OC(F)(F)O2	4.16
CC(C)N1C(=O)N(c2ccccc2)CSC1=NC(C)(C)C	4.92
CC(C)CC(C)c1sccc1NC(=O)c1cn(C)nc1C(F)(F)F (stereo not drawn)	3.96
CCCC1COC(Cn2cncn2)(c2ccc(Cl)cc2Cl)O1 (stereo not drawn)	3.57
COC(=O)C(C)N(C(=O)c1ccco1)c1c(C)cccc1C (stereo not drawn)	2.59

SMILES	logP
Fc1ccc(Oc2ccnc3cc(Cl)cc(Cl)c23)cc1	5.27
Nc1ccc(C(F)(F)F)cc1	2.31
c1ccc2ccccc2c1	3.37
CC1COC(Cn2cncn2)(c2ccc(Oc3ccc(Cl)cc3)cc2Cl)O1 (stereo not drawn)	4.24
CCN(CC)C(=O)C(C)Oc1cccc2ccccc12 (stereo not drawn)	3.22
CC(C)(C)C(=O)C(Oc1ccc(Cl)cc1)n1cncn1 (stereo not drawn)	3.11
c1ccc(-c2ccccn2)nc1	1.72
COC(=O)c1ccc(Cl)cc1	2.81
FC(F)C(F)(F)OCC(Cn1cncn1)c1ccc(Cl)cc1Cl (stereo not drawn)	3.49
CCON=C(CC)C1=C(O)CC(c2c(C)cc(C)cc2C)CC1=O (stereo not drawn)	4.77
CCCCOC(=O)C(C)Oc1ccc(Oc2ccc(C(F)(F)F)cn2)cc1 (stereo not drawn)	5.01
CC(Oc1ccc(Oc2ccc(Cl)cc2Cl)cc1)C(=O)O (stereo not drawn)	4.69
Cc1cc(C)nc(NC(=O)NS(=O)(=O)c2ccccc2C(=O)OC2COC2)n1	1.07
CC(C)(C)N(NC(=O)c1ccccc1)C(=O)c1ccccc1	2.43
COC(=O)c1ccccc1S(=O)(=O)NC(=O)Nc1nc(OC(F)F)cc(OC(F)F)n1	3.49
CO/N=C(/C(=O)OC)c1ccccc1CO/N=C(\C)c1cccc(C(F)(F)F)c1	4.45
COC(=O)NCc1cc(/C(C)=N/OCc2cccc(C)n2)ccc1Cl	3.64
Cc1cccc2sc3nncn3c12	1.42
c1ccc2[nH]cnc2c1	1.29
CC(=O)Nc1ccccc1C(F)(F)F	1.14
CC1=CC(=O)CC(C)(C)[C@@]1(O)/C=C/C(C)=C\C(=O)O	1.71
CCCCOC(=O)c1ccccc1C(=O)OCCCC	4.46
COc1nc(C)nc(NC(=O)NS(=O)(=O)c2ccccc2CCC(F)(F)F)n1	2.87

SMILES	logP
CC(C)N(Cc1ccccc1)C(=O)C(C)(C)C	2.98
c1ccc2c(c1)Nc1ccccc1S2	4.08
COC(=O)N(C(=O)N1CO[C@@]2(C(=O)OC)Cc3cc(Cl)ccc3C2=N1)c1ccc(OC(F)(F)F)cc1	4.75
CCN1C(=O)C(=O)c2ccc(OC)cc2C1=O	1.4
CCOC(=O)C(C)Oc1ccc(Oc2ccc(C(F)(F)F)cn2)cc1 (stereo not drawn)	3.9
CC1(C)CCC(Cc2ccc(Cl)cc2)C1(O)Cn1cncn1 (stereo not drawn)	3.82
CC(C)N1C(=O)c2ccccc2NS1(=O)=O	2.75
CNC(=O)Nc1ccc(S(=O)(=O)NC(=O)c2ccccc2OC)cc1	1.95
CCSC(=O)N(CC(C)C)CC(C)C	4.1
c1ccc2[nH]ccc2c1	2.15
CC1=C(C(=O)Nc2ccccc2)SCCO1	2.08
CNC(=O)Nc1ccc(C(=O)O)cc1	1.16
CCCN(CCOc1c(Cl)cc(Cl)cc1Cl)C(=O)n1ccnc1	4.02
CSc1nnc(C(C)(C)C)c(=O)n1N	1.61
c1ccc(-c2ccncn2)cc1	1.9
Nc1c(Cl)cccc1Cl	2.75
COc1nc(C)nc(NC(=O)NS(=O)(=O)c2ccccc2OCCCl)n1	1.72
CC(=NC#N)N(C)Cc1ccc(Cl)nc1	0.82
CCOC(=O)C1CC(=O)C(=C(O)C2CC2)C(=O)C1 (stereo not drawn)	2.02
Nc1cc(Cl)cc(Cl)c1	2.89
c1ccc(Oc2ccccn2)cc1	2.36
Oc1cccc2cccnc12	1.93
C[Si](Cn1cncn1)(c1ccc(F)cc1)c1ccc(F)cc1	3.76

SMILES	logP
CC(C1CC1)C(O)(Cn1cncn1)c1ccc(Cl)cc1 (stereo not drawn)	2.99
Cc1cc(Cl)ccc1OCC(=O)O	2.79
CO/C=C(/C(=O)OC)c1ccccc1COc1cc(C(F)(F)F)nc(OC(C)C)n1	4.18
Cc1[nH]n(C)c(=O)c1C(=O)c1ccc(C(F)(F)F)cc1S(C)(=O)=O	0.63
N#Cc1c(Cl)c(Cl)c(Cl)c(C#N)c1Cl	2.93
O=[N+]([O-])c1c(Cl)c(Cl)cc(Cl)c1Cl	4.28
C[C@@H](Oc1ccc(Oc2ccc(C#N)cc2F)cc1)C(=O)O	3.08
N#CN=C1SCCN1Cc1ccc(Cl)nc1	1.26
CN(C)C(=O)Nc1ccc(Cl)c(Cl)c1	2.74
COC(=O)C(C)Oc1ccc(Oc2ccc(Cl)cc2Cl)cc1 (stereo not drawn)	4.89
O=[N+]([O-])c1ccccc1	1.79
N#Cc1cc(Br)c(O)c(Br)c1	2.9
Cc1cc(C(F)(F)F)nn1CC(=O)N1CCC(c2nc(C3=NOC(c4c(F)cccc4F)C3)cs2)CC1 (stereo not drawn)	3.6
COC(=O)c1ccccc1C(=O)OC	1.49
CCCCn1nnc2ccccc21	2.52
COC(=O)c1cc(Oc2ccc(Cl)cc2Cl)ccc1[N+](=O)[O-]	4.53
CNC(=O)Oc1ccccc1OC(C)C	1.55
CCOC(=O)c1cccnc1	1.38
